From patent publication US9169241B2, “Quinolinyloxyphenylsulfonamides” (Max-Planck-Gesellschaft Zur Forderung der Wissenschaften …, priority 2009, dated 2015)
Where two headings read alike, the source gives them in different places.

Legend:
Hs578T [1] = assay: Matrigel outgrowth assay/branching assay; format: cell-based; settings: Homo sapiens, Hs-578T; HS578T cell line; Table Ib; read-out: Total branching inhibition in Matrigel HS578T
Outline: (§1)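 Step one: Matrigel (3 mg/ml) is set for 1 h at 37° C. Step two: 5000 cells per well go on in medium with compound (0.78–3.125 μM) or DMSO. Step three: images at 48, 72 and 96 h are scored for complete loss of branching.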

SF126 = assay: Cell vitality assay (ATP assay, CellTiter-Glo); format: cell-based; settings: Homo sapiens, SF-126
Outline: (§2)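 1000 cells/well incubated 72 h with compound at 12.5 down to 0.195 μM (twofold steps) or DMSO control. Viability measured as cellular ATP by CellTiter-Glo luminescence; IC50 taken as the concentration giving 50% of the DMSO-control ATP level.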

U118 = assay: Cell vitality assay (ATP assay, CellTiter-Glo); format: cell-based
Outline: as §2

A172 = assay: Cell vitality assay (ATP assay, CellTiter-Glo); format: cell-based; settings: Homo sapiens, A 172; A172, 72 h; Table IIa; read-out: IC50 ATP-Assay after 72 h A172
Outline: as §2

MDA-MB231 = assay: Cell vitality assay (ATP assay, CellTiter-Glo); format: cell-based; settings: Homo sapiens, MDA-MB-231
Outline: as §2

Hs578T [2] = assay: Cell vitality assay (ATP assay, CellTiter-Glo); format: cell-based; settings: Homo sapiens, Hs-578T, 72 h
Outline: as §2

U138 = assay: Cell vitality assay (ATP assay, CellTiter-Glo); format: cell-based; settings: U138, 72 h; Table IIa; read-out: IC50 ATP-Assay after 72 h U138
Outline: as §2

C8161 = assay: Cell vitality assay (ATP assay, CellTiter-Glo); format: cell-based; settings: Homo sapiens; C8161, 72 h; Table IIa; read-out: IC50 ATP-Assay after 72 h C8161
Outline: as §2

SF763 = assay: Cell vitality assay (ATP assay, CellTiter-Glo); format: cell-based; settings: SF763, 72 h; Table IIa; read-out: IC50 ATP-Assay after 72 h SF763
Outline: as §2

tumor cell = assay: Matrigel outgrowth assay/branching assay (Table Va); format: cell-based
Outline: as §1

indicated cell line = assay: Wound healing migration assay (Table IV); format: cell-based; settings: compounds at 12.5, 6.25, 3.125 μM, 48 h-72 h
Outline: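 Cells seeded at 150000/24 well, grown to monolayer overnight, scratched with a pipette tip, then treated with compound at 12.5, 6.25 or 3.125 μM versus DMSO. Stopped by crystal violet fixation at 48-72 h once control wounds closed; IC50 taken as 50% wound size between t0 and t48 or t72.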

[3] = SF126, 72 h, Table IIa, read-out: IC50 ATP-Assay after 72 h SF126
[4] = U118, 72 h, Table IIa, read-out: IC50 ATP-Assay after 72 h U118
[5] = MDA-MB231, 72 h, Table IIa, read-out: IC50 ATP-Assay after 72 h MDA-MB231
[6] = HS578T cell line, Table Ib, read-out: IC50 ATP-Assay HS578T after 72 h
[7] = Hs578T, Table IIa, read-out: IC50 ATP-Assay after 72 h Hs578T
[8] = Homo sapiens, C8161 cells, read-out: Total branching inhibition in Matrigel C8161
[9] = Homo sapiens, Hs-578T, Hs578T cells, read-out: Total branching inhibition in Matrigel Hs578T
[10] = U118 cells, read-out: Total branching inhibition in Matrigel U118
[11] = U138 cells, read-out: Total branching inhibition in Matrigel U138
[12] = Homo sapiens, A 172, A172 cells, read-out: IC50 Wound healing Assay A172
[13] = Homo sapiens, SF-126, SF126 cells, read-out: IC50 Wound healing Assay SF126
[14] = Homo sapiens, C8161 cells, read-out: IC50 Wound healing Assay C8161
[15] = SF763 cells, read-out: IC50 Wound healing Assay SF763
[16] = U118 cells, read-out: IC50 Wound healing Assay U118

Row | Compound | melting point [°C] | IC50 (Hs578T [1]) [µM] | IC50 (SF126; [3]) [µM] | IC50 (U118; [4]) [µM] | IC50 (A172) [µM] | IC50 (MDA-MB231; [5]) [µM] | IC50 (Hs578T [2]; [6]) [µM] | IC50 (Hs578T [2]; [7]) [µM] | IC50 (U138) [µM] | IC50 (C8161) [µM] | IC50 (SF763) [µM] | IC50 (tumor cell; [8]) [µM] | IC50 (tumor cell; [9]) [µM] | IC50 (tumor cell; [10]) [µM] | IC50 (tumor cell; [11]) [µM] | IC50 (indicated cell line; [12]) [µM] | IC50 (indicated cell line; [13]) [µM] | IC50 (indicated cell line; [14]) [µM] | IC50 (indicated cell line; [15]) [µM] | IC50 (indicated cell line; [16]) [µM] | also measured
1 | COc1cc2c(Oc3ccc(NS(=O)(=O)c4c(F)cccc4F)cc3F)ccnc2cc1OCCCN1CCOCC1 [Example 77, 2,6-Difluoro-N-{3-fluoro-4-[6-methoxy-7-(3-morpholin-4-yl-propoxy)-quinolin-4-yloxy]-phenyl}-benzenesulfonamide] | 190 to 192 | ≤ 10 | 12.5 to 50 | ≤ 12.5 | ≤ 12.5 | 12.5 to 50 | ≤ 12.5 | ≤ 12.5 | ≤ 12.5 | ≤ 12.5 | ≤ 12.5 | 5 to 50 | ≤ 5 | ≤ 5 | 5 to 50 | ≤ 12.5 | ≤ 12.5 | ≤ 12.5 | ≤ 12.5 | ≤ 12.5 | –
2 | COc1cc2c(Oc3ccc(NS(=O)(=O)c4ccccc4C(F)(F)F)cc3F)ccnc2cc1OCCCN1CCCCC1C (stereo not drawn) [Example 99, N-(3-Fluoro-4-{6-methoxy-7-[3-(2-methyl-piperidin-1-yl)-propoxy]-quinolin-4-yloxy}-phenyl)-2-trifluoromethyl-benzenesulfonamide] | 115 to 116 | ≤ 10 | ≤ 12.5 | ≤ 12.5 | ≤ 12.5 | ≤ 12.5 | ≤ 12.5 | ≤ 12.5 | ≤ 12.5 | 12.5 to 50 | ≤ 12.5 | 5 to 50 | ≤ 5 | ≤ 5 | ≤ 5 | ≤ 12.5 | ≤ 12.5 | 12.5 to 50 | ≤ 12.5 | ≤ 12.5 | –
3 | COc1cc2c(Oc3ccc(NS(=O)(=O)c4cc(F)ccc4F)cc3F)ccnc2cc1OCCCN1CCCCC1 [Example 1, 2,5-Difluoro-N-{3-fluoro-4-[6-methoxy-7-(3-piperidin-1-yl-propoxy)-quinolin-4-yloxy]-phenyl}-benzenesulfonamide] | 206 to 208 | ≤ 10 | ≤ 12.5 | ≤ 12.5 | ≤ 12.5 | 12.5 to 50 | ≤ 12.5 | 12.5 to 50 | ≤ 12.5 | 12.5 to 50 | ≤ 12.5 | ≤ 5 | ≤ 5 | ≤ 5 | ≤ 5 | ≤ 12.5 | ≤ 12.5 | ≤ 12.5 | ≤ 12.5 | ≤ 12.5 | IC50 (SF126; cell vitality assay, SF126, Table IIb, read-out: IC50 SF126): ≤ 12.5 µM; IC50 (U118; cell vitality assay, U118, Table IIc, read-out: IC50 U118): ≤ 12.5 µM; IC50 (MDA-MB231; cell vitality assay, MDA-MB231, Table IIc, read-out: IC50 MDA-MB231): ≤ 12.5 µM
4 | COc1cc2c(Oc3ccc(NS(=O)(=O)c4ccccc4OC)cc3F)ccnc2cc1OCCCN1CCN(C)CC1 [Example 33, N-(3-Fluoro-4-{6-methoxy-7-[3-(4-methyl-piperazin-1-yl)-propoxy]-quinolin-4-yloxy}-phenyl)-2-methoxy-benzenesulfonamide] | 168 to 170 | ≤ 10 | ≤ 12.5 | ≤ 12.5 | – | ≤ 12.5 | – | ≤ 12.5 | ≤ 12.5 | ≤ 12.5 | ≤ 12.5 | ≤ 5 | ≤ 5 | ≤ 5 | 5 to 50 | – | – | ≤ 12.5 | 12.5 to 50 | – | –
5 | COc1cc2c(Oc3ccc(NS(=O)(=O)c4cc(C)ccc4F)cc3F)ccnc2cc1OCCCN1CCCC(C)C1 (stereo not drawn) [Example 55] | 149 to 151 | ≤ 10 | ≤ 12.5 | 12.5 to 50 | – | ≤ 12.5 | 12.5 to 50 | 12.5 to 50 | 12.5 to 50 | ≤ 12.5 | 12.5 to 50 | ≤ 5 | ≤ 5 | ≤ 5 | 5 to 50 | – | – | 12.5 to 50 | 12.5 to 50 | – | –
6 | COc1cc2c(Oc3ccc(NS(=O)(=O)c4cccc(C)c4)cc3F)ccnc2cc1OCCCN1CCCC(C)C1 (stereo not drawn) [Example 70, N-(3-Fluoro-4-{6-methoxy-7-[3-(3-methyl-piperidin-1-yl)-propoxy]-quinolin-4-yloxy}-phenyl)-3-methyl-benzenesulfonamide] | 168 to 170 | ≤ 10 | ≤ 12.5 | ≤ 12.5 | – | 12.5 to 50 | – | 12.5 to 50 | ≤ 12.5 | 12.5 to 50 | 12.5 to 50 | ≤ 5 | ≤ 5 | ≤ 5 | ≤ 5 | – | – | 12.5 to 50 | ≤ 12.5 | – | –
7 | COc1cc2c(Oc3ccc(NS(=O)(=O)c4c(Cl)cccc4Cl)cc3F)ccnc2cc1OCCCN1CCN(C)CC1 [Example 32, 2,6-Dichloro-N-(3-fluoro-4-{6-methoxy-7-[3-(4-methyl-piperazin-1-yl)-propoxy]-quinolin-4-yloxy}-phenyl)-benzenesulfonamide] | 113 to 116 | ≤ 10 | ≤ 12.5 | ≤ 12.5 | – | ≤ 12.5 | – | ≤ 12.5 | ≤ 12.5 | ≤ 12.5 | ≤ 12.5 | ≤ 5 | ≤ 5 | ≤ 5 | 5 to 50 | – | – | ≤ 12.5 | ≤ 12.5 | – | –
8 | COc1cc2c(Oc3ccc(NS(=O)(=O)c4cccc(Oc5ccccc5)c4)cc3F)ccnc2cc1OCCCN1CCCC(C)C1 (stereo not drawn) [Example 59, N-(3-Fluoro-4-{6-methoxy-7-[3-(3-methyl-piperidin-1-yl)-propoxy]-quinolin-4-yloxy}-phenyl)-3-phenoxy-benzenesulfonamide] | 146 to 147 | ≤ 10 | 12.5 to 50 | 12.5 to 50 | – | ≤ 12.5 | ≤ 12.5 | ≤ 12.5 | ≤ 12.5 | ≤ 12.5 | ≤ 12.5 | ≤ 5 | ≤ 5 | 5 to 50 | ≤ 5 | – | – | 12.5 to 50 | ≤ 12.5 | – | –
9 | COc1cc2c(Oc3ccc(NS(=O)(=O)c4ccc(C)c(F)c4)cc3F)ccnc2cc1OCCCN1CCCC(C)C1 (stereo not drawn) [Example 56, 3-Fluoro-N-(3-fluoro-4-{6-methoxy-7-[3-(3-methyl-piperidin-1-yl)-propoxy]-quinolin-4-yloxy}-phenyl)-4-methyl-benzenesulfonamide] | 174 to 176 | 10 to 25 | ≤ 12.5 | 12.5 to 50 | – | 12.5 to 50 | 12.5 to 50 | 12.5 to 50 | ≤ 12.5 | ≤ 12.5 | ≤ 12.5 | ≤ 5 | 5 to 50 | ≤ 5 | 5 to 50 | – | – | ≤ 12.5 | 12.5 to 50 | – | –
